ChEMBL document CHEMBL5579799, “Synthesis and biological evaluation of novel 18F-labeled 2,4-diaminopyrimidine derivatives for detection of ghrelin receptor in the brain” (Bioorg Med Chem Lett, 2024)

Assays:
[1] = target: Growth hormone secretagogue receptor type 1 (Homo sapiens, UniProt Q92847)
Description: Displacement of [125I]ghrelin from human GHSR assessed as inhibition constant by competitive binding assay

[2] = Ratio of drug concentration in rat brain to plasma at po administration measured after 1 hr

Growth hormone secretagogue receptor type 1, sequence (Q92847 whole entry): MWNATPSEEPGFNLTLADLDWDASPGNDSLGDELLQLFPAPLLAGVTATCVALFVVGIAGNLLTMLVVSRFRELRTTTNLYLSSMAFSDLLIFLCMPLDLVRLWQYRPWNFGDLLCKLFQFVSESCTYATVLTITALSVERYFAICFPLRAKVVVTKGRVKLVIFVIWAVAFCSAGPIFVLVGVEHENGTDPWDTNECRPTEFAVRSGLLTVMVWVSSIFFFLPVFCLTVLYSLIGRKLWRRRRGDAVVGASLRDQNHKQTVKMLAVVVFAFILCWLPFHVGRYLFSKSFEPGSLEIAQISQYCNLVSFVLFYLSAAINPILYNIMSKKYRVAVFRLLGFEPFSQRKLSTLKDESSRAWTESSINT

Row | Ki [1] | Kp at 1 h [2] | Compound
1 | > 5000 nM | – | CCc1nc(N)nc(N)c1-c1ccc(NCc2ccc(OCCF)cc2)cc1
2 | 108 nM | 3.05 | Nc1nc(N)c(-c2ccc(NCc3ccc(Cl)cc3)cc2)c(COCc2ccccc2)n1
